The values that follow are results of earlier work, collected in patent publication US5721209A, “Iron chelator and inhibitor of iron-mediated oxidant injury” (The Regents of the University of California, priority 1995, dated 1998).

Like-named read-outs stand apart in the source and are kept apart here.

In one data set the test system is neuroblastoma cells. The note with it: removal of iron; growth of normal cells not similarly affected.
The next data set concerns ischemic myocardium. The note with it: for prevention of reperfusion injury / myocardial infarct size: administered prior to reperfusion / prior to occurrence of the myocardial infarct.
The conditions of data set [1]: prior known iron chelator.
For data set [2] the following is noted: according to Macham.

Consider `CC(=O)N(O)CCCCCNC(=O)CCC(=O)N(O)CCCCCNC(=O)CCC(=O)N(O)CCCCCN` [deferoxamine], for which, in the data set with neuroblastoma cells, the “growth of neuroblastoma cells” value was “negatively affected”. Moreover, the “prevention of reperfusion injury” value with ischemic myocardium (administered at or after the onset of reperfusion) is listed as “ineffective”. The “prevention of reperfusion injury / myocardial infarct size” value in the data set with ischemic myocardium is “prevents injury and reduces myocardial infarct size”; in the data set on ischemic myocardium (listed as Desferoxamine), “effective”.
For the compound `O=C(O)CN(CCN(CC(=O)O)CC(=O)O)CC(=O)O` [EDTA], in data set [1], the “prevention of (.cndot.OH) production by the Fenton reaction” value is on record as “do not prevent (.cndot.OH) production by the Fenton reaction”.
Take mycobactin: the solubility result in data set [2] was “water insoluble”.
